Source: ChEMBL document CHEMBL5036321, “Sinularamides A-G, Terpenoid-Derived Spermidine and Spermine Conjugates with Casitas B-Lineage Lymphoma Proto-Oncogene B (Cbl-b) Inhibitory Activities from a Sinularia sp. Soft Coral” (J Nat Prod, 2021)
pIC50: −log10 of the molar value.

Target: E3 ubiquitin-protein ligase CBL-B (Homo sapiens, UniProt Q13191)
Assay: Inhibition of Cbl-b (unknown origin) assessed as inhibition of Cbl-b dependent auto-ubiquitination in presence of ATP measured after 13 hrs by fluorescence microplate reader assay

Sequence of E3 ubiquitin-protein ligase CBL-B (Q13191 whole entry): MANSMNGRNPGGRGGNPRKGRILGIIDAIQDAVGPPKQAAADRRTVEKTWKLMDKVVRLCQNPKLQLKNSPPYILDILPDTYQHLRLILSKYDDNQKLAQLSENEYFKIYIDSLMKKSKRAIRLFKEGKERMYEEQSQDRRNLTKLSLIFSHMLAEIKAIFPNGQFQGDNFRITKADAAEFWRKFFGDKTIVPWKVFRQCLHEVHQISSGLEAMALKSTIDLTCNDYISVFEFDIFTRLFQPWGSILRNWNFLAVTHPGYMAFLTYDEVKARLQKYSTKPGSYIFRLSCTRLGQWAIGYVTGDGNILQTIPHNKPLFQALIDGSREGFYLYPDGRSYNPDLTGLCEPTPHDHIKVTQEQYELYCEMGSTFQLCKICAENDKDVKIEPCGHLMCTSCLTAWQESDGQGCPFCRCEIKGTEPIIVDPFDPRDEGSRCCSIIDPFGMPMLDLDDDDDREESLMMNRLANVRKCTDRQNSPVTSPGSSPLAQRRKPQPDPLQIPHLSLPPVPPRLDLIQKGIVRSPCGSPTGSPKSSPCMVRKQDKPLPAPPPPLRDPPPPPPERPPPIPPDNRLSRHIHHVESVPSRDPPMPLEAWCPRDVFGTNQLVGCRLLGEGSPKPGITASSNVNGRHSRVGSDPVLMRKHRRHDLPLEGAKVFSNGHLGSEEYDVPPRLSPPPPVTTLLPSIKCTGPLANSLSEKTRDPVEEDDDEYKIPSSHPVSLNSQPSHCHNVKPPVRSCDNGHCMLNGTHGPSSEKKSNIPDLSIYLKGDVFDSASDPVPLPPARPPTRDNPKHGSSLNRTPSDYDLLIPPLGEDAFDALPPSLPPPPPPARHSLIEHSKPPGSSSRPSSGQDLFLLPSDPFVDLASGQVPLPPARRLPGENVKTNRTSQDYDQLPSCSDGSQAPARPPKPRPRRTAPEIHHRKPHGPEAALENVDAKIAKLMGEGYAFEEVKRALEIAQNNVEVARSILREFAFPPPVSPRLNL

Compound `CC(C)=CCC/C(C)=C/CC/C(C)=C/CC/C(C)=C/C(=O)NCCC[N+](C)(C)CCCC[N+](C)(C)CCCNC(=O)/C=C(\C)CC/C=C(\C)CC/C=C(\C)CCC=C(C)C` has a pIC50 of 5.19.
